From US10487054B2, “Therapeutic compounds” (REGENTS OF THE UNIVERSITY OF MINNESOTA, priority 2017, dated 2019)

Tests used:
A431 cells = test: Crystal violet staining cell proliferation assay; format: cell-based, human; details: dose-dependent, several days
Protocol: (§1) Cells were exposed to EGF (10 ng/ml) and treated with increasing concentrations of compound 1. Representative photographs are shown and data are presented as mean values±S.D. from triplicate experiments. […] Cells were treated with different concentrations of compound 1 for several days and cell proliferation was determined by a crystal violet staining assay.
(§2) Cell proliferation was determined by a crystal violet staining assay. Cells (3×10^4/well) were seeded into 24-well plates. After an overnight incubation, cells were treated with different concentrations of compound 1 and incubated for several days. Then, each well was washed 3 times with phosphate buffered saline (PBS) and stained with 0.2% (w/v) crystal violet in 2% (v/v) ethanol. After 10 min, cells were washed 3 times with distilled water, and the remaining dye was dissolved in 0.5% (w/v) sodium dodecyl sulfate in 50% (v/v) ethanol. Absorbance was measured at an optical density of 540 nm using the Thermo Multiskan plate-reader (Thermo Fisher Scientific).

SCC12 cells = test: Crystal violet staining cell proliferation assay; format: cell-based, human; details: dose-dependent, several days
Protocol: as §1, §2

active TOPK = biological target: T1, active TOPK (Homo sapiens, UniProt Q96KB5); test: In vitro kinase assay ([γ-32P] ATP, autoradiography); format: biochemical; details: 0.5, 1, 3 or 5 μM
T1 construct: purchased SignalChem (Richmond, BC, Canada)
T1 sequence (Q96KB5 1-322): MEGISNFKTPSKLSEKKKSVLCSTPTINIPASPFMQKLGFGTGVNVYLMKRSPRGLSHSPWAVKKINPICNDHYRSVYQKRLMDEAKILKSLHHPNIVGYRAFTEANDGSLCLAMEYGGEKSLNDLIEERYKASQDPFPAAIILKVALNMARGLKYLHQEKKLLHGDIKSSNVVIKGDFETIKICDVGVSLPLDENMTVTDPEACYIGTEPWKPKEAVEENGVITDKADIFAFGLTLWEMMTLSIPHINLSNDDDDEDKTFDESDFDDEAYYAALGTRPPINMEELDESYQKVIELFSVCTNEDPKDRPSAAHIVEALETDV
Protocol: Active TOPK (200 ng) was incubated with different concentrations of ATP (0, 10 or 100 μM) and then mixed with compound 1-conjugated Sepharose 4B beads or Sepharose 4B beads. Proteins were pulled down and analyzed by Western blot. Data are representative of 3 independent experiments that gave similar results. FIGS. 2C and 2D show compound 1 binds to either TOPK (2C) or MEK1/2 (2D) ex vivo. Lysates from HaCaT cells (500 μg) were incubated with compound 1-conjugated Sepharose 4B beads or Sepharose 4B beads alone and the pulled-down proteins were analyzed by Western blot. Data are representative of 3 independent experiments that gave similar results. FIGS. 2E and 2F show compound 1 inhibits TOPK kinase (2E) activity but not MEK1 kinase (2F) activity in vitro. Active TOPK (200 ng) was mixed with compound 1 (0, 0.5, 1, 3, or 5 μM) or HI-032 (TOPK inhibitor, 10 μM) and then incubated with a [γ-^32P] ATP mixture. Similarly, MEK1 (200 ng) was mixed with compound 1 (0, 0.5, 1, 3, 5, or 10 μM) or PD098059 (MEK1 inhibitor, 5 μM) and then incubated with a [γ-^32P] ATP mixture. For 2E and 2F, the results are visualized by autoradiography and Coomassie blue staining serves as a loading control. […]
The in vitro kinase assay was conducted according to the instructions provided by Millipore (Billerica, Mass.). […] The relative amounts of incorporated radioactivity were assessed by autoradiography.

TOPK kinase activity (active TOPK): effectively inhibited
SMILES: O=C1Nc2ccc(C34CC5CC(CC(C5)C3)C4)cc2C1=NO [compound 1, 5-(adamantan-1-yl)-3-(hydroxyimino)indolin-2-one]
cell proliferation (A431 cells): strongly decreased | cell proliferation (SCC12 cells): strongly decreased
